Read-outs that look alike come from different tables or passages of the source.
What was measured:
rat α4β2 nAChR = rat α4β2 nAChR (Rattus norvegicus, UniProt P09483+P12390); test: Competition binding with [^3H]epibatidine as radioligand, HEK cell membranes
rat α3β4 nAChR [1] = target: T1, rat α3β4 nAChR (Rattus norvegicus, UniProt P04757+P12392); test: as above
human α3β4α5 nAChR [2] = target: T2, human α3β4α5 nAChR (Homo sapiens, UniProt P30926+P32297); test: Competition binding with [^125I]AT-1012 as radioligand, HEK cell membranes
rat α3β4 nAChR [3] = target: T1, rat α3β4 nAChR; test: as above
human α3β4α5 nAChR [4] = target: T2, human α3β4α5 nAChR; format: binding
α7 nAChR = α7 nAChR (Homo sapiens, UniProt P36544); test: Binding at α7 nAChR
[5] = read-out: Binding affinity (Ki)
[6] = radioligand [^125I]AT-1012, human α3β4α5 nAChR, average ± SD
[7] = radioligand [^125I]AT-1012, rat α3β4 nAChR, average ± SD

SMILES	Hill coefficient (rat α4β2 nAChR)	Ki (rat α4β2 nAChR; [5]) [nM]	Hill coefficient (rat α3β4 nAChR [1])	Hill coefficient (human α3β4α5 nAChR [2]; [6])	Hill coefficient (rat α3β4 nAChR [3]; [7])	Hill coefficient (human α3β4α5 nAChR [4])	Ki (rat α4β2 nAChR) [nM]	Competition with [^125I]AT-1012 at the human α3β4α5 nAChR (human α3β4α5 nAChR [2])	Inhibition of [^125I]AT-1012 binding (rat α3β4 nAChR [3]; rat α3β4 nAChR)	further results
CN1C2CCCC1CC(Nc1ccccc1Br)C2 (stereo not drawn) [AT-1001]	0.97±0.11	263 ± 9.3	0.87±0.19	0.95±0.05	0.94±0.04	0.82±0.04	–	–	–	–
CN1[C@@H]2CCC[C@H]1CC(Nc1ccccc1I)C2 (stereo partly drawn) [AT-1012]	0.88±0.02	142 ± 2	0.77±0.09	0.96±0.09	1.03±0.01	–	–	–	–	Binding selectivity for the α3β4 over α4β2 nAChR (rat α4β2 nAChR): over 100 fold; Ki (rat α3β4 nAChR [1]; [5]): 1.3 ± 0.16 nM; Selectivity versus the α7 nAChR (α7 nAChR): greater than 100 fold; Ki (human α3β4α5 nAChR [2]; read-out: Binding affinity (Ki) at human α3β4α5 nAChR, radioligand [^125I]AT-1012, average ± SD): 0.68 ± 0.06 nM; Ki (human α3β4α5 nAChR [4]; read-out: Binding affinity (Ki) at human α3β4α5 nAChR): 1.08 ± 0.05 nM
COCC[C@H]1CC2CN3CCc4c([nH]c5ccccc45)[C@](C(=O)OC)(C2)[C@H]13 [Compound 18-MC, 18-methoxycoronaridine]	–	–	–	–	–	–	> 10000	do not compete	do not inhibit	Ki (rat α3β4 nAChR [1]): > 10000 nM; Ki (rat α3β4 nAChR [3]): > 10000 nM
Clc1ccc(C2CC3CCC2N3)cn1 (stereo not drawn) [Epibatidine]	–	–	1.00±0.06	0.88±0.02	0.89±0.01	0.98±0.02	–	–	–	–
CNC1(C)C2CCC(C2)C1(C)C (stereo not drawn) [Mecamylamine]	–	–	–	–	–	–	> 10000	do not compete	do not inhibit	–
CN1CCC[C@H]1c1cccnc1 [Nicotine]	–	–	–	–	–	–	–	–	–	Hill coefficient (rat α4β2 nAChR; radioligand [^3H]epibatidine, rat α4β2 nAChR, average ± SD): 0.95±0.07; Hill coefficient (rat α3β4 nAChR [1]; radioligand [^3H]epibatidine, rat α3β4 nAChR, average ± SD): 1.08±0.12; Hill coefficient (human α3β4α5 nAChR [2]): 1305±219 (0.75±0.05); Hill coefficient (rat α3β4 nAChR [3]): 467±48 (0.68±0.02); Hill coefficient (human α3β4α5 nAChR [4]; radioligand [^3H]epibatidine, human α3β4α5 nAChR, average ± SD): 0.91±0.04
